One test deals with CD133+ PC3MM2 cells. As to the kind of experiment: MTT cytotoxicity assay, CD133+ PC3MM2 cells on type I collagen. Type of test: cell-based, human. As to conditions: 72 hours, 10 nM-10 μM, stated as up to. As to the method: (§1) The CSC-specific cytotoxic effects were studied in two different settings both of which are known to maintain/promote sternness phenotype: adherent to type I collagen cultures and 3D cultures of floating spheroids (Baretton, G. B. 1994; Miyoshi, Y. 2000; Koivisto, P. 1995). The CD133^high/CD44^high cells (1×10^3 cells/well) isolated either from PPT2 or PC3MM2 cell lines were seeded onto the type I collagen-coated 96-well plates, cultured in the MSCGM for 2 days, and the treatment was initiated upon 90% confluency. Paclitaxel, SBT-1214 and CMC2.24 were dissolved in sterile DMSO and then serially diluted in MSCGM. […] Cell death was analyzed on adherent type I collagen cell cultures with the MTT assay [MTT=3-(4,5-dimethylthiazol-2-yl)-2,5-diphenyltetrazolium bromide] as recommended by manufacturer (Invitrogen). […]
The dose-response cytotoxicity of SBT-1214, CMC2.24/and their combination was evaluated by standard MTT assay (all of the in vitro experiments were repeated at least three times and each measurement for the MMT assay was performed in 4 repeats). The dose-response points were plotted as a percentage of the untreated control, the absorbance of which was considered as 100%. Data were expressed as means±SD for each drug concentration. […] Data were expressed as means±SD for control and drug treated tumors. The statistical significance of differences was determined using Student's t-test. […]
On the technique in general: Formazan colour is commonly taken as a measure of viable cells.

Test [1] relates to PPT2 and PC3MM2 cell lines. The experiment in a line: FACS analysis of CD133 expression after drug treatment. Conditions: 10 nM to 10 μM, 24 hours, concentration-dependent. Type of test: cell-based, human.
Description: To ensure more reliable isolation of CSCs, cells were labeled with one or several markers conjugated with different fluorescent dyes, including anti-human CD133/2-APC (clone 293C3; Miltenyi Biotec, CA, USA); CD166-PE (clone 105902; R&D Systems, MN, USA); CD44-FITC (clone F10-44-2), CD44-PE (clone F10-44-2; Invitrogen/Biosources, USA); CD44v6-FITC (clone 2F10; R&D Systems, USA), EpCAM-FITC (Biosource, CA, USA), Pan-Keratin (C11)-Alexa Fluor® 488 (Cell Signaling) and all the isotype controls (Chemicon). Antibodies were diluted in buffer containing 5% BSA, 1 mM EDTA and 15-20% blocking reagent (Miltenyi Biotec) to inhibit unspecific binding to non-target cells. After 15 min incubation at 4° C., stained cells were sorted and analyzed with multiparametric flow cytometer BD FACSAria (Becton Dickinson, CA). Alternatively, dissociated cells were centrifuged at 950 g for 5 min at 4° C., rinsed with sterile MACS buffer (Miltenyi Biotec, CA) and labeled with CD133 Abs directly or indirectly conjugated with ferromagnetic beads (Miltenyi Biotec, CA) as recommended by manufacturer.
as §1

Test [2] concerns Oct-4, Sox-2, Nanog, Lin-28 and c-Myc. As to the kind of experiment: Stem cell-specific PCR array on 3D spheroids induced by CD133high/CD44high cells. The test is classed as cell-based. As to conditions: single treatment with 0.01 μg/ml. As to the method:
Stem cell-specific gene expression profiles were studied with the PCR Array assay (SABiosciences, CA) in accordance with the manufacturer's recommendations. Briefly, total RNA was isolated from different cell populations (cancer stem cells expressing high levels of the CD133 and CD44, or whole floating spheroids that are enriched with CSCs) using PARIS kit (Ambion). Up to 1 μg of total RNA was treated with DNase and cDNA was prepared using RT^2 First Strand kit. For each analysis, pairs of the test and control cDNA samples were mixed with RT^2 qPCR Master mix and distributed across the PCR array 96-well plates, each of which contained 84 stem cell-related probes and control housekeeping genes. After cycling with real-time PCR (Opticon MJ Research or ABI 7300, Applied Biosystems), obtained amplification data (fold-changes in Ct values of all the genes) was analyzed with SABiosciences software.
Since CSC-enriched CD 133^+ and CD44^+ cell populations are more resistant to conventional therapies than other more differentiated cells, the cytotoxic effects of SBT-1214 were tested against such cell populations in colon (Botchkina et al., 2010) and prostate (FIG. 5) cancers. […]

The test system of a further test is p53 and p21. The experiment in a line: Western blot of pro-apoptotic proteins. The test is classed as cell-based, human. As to conditions: CD133+ and bulk PPT2 cells, previously not expressed. As to the method: Cells were lysed using Active Motif Nuclear Co-ip kit according to manufacturer's protocol. 20 μg of enriched nuclear and cytoplasmic extracts was subjected to electrophoresis in 10% polyacrylamide gel. The proteins were then transferred to a nitrocellulose membrane and developed with appropriate antibodies.
For orientation: A western blot detects proteins with antibodies after separation by electrophoresis.

Test [3] has as its system drug-resistant colon tumor xenografts. As to conditions: all surviving mice; cited from earlier work.

Molecules are shown by their SMILES.

`CC(=O)O[C@@]12CO[C@@H]1C[C@H](O)[C@@]1(C)C(=O)[C@H](OC(=O)C3CC3)C3=C(C)[C@@H](OC(=O)[C@H](O)[C@H](C=C(C)C)NC(=O)OC(C)(C)C)C[C@@](O)([C@@H](OC(=O)c4ccccc4)[C@H]21)C3(C)C` [SBT-1214]: the cell death entry in the test with CD133+ PC3MM2 cells is “up to 60%”. For the same compound, the “ratios of cells with highest expression of CD133” value in test [1] is listed as “increased the ratios”. Also, in test [2], the “expression of key regulators of pluripotency” value was “significantly inhibited”. Also, the “expression of p21 and p53” value in the test on p53 and p21 was “induced expression”. Besides, in test [3], the tumor regression entry is “complete regression”.
